Where a name gives a salt, the structure may show the parent alone.
Target: T1, Bradykinin receptor (Cavia porcellus, UniProt O70526)
T1 construct: The ileum was removed and homogenized in buffer; from tissue; host or cells: guinea pig ileum, crude membrane suspension (male Hartley strain, given 'Hartly' in the source)
T1 sequence (O70526 1-372): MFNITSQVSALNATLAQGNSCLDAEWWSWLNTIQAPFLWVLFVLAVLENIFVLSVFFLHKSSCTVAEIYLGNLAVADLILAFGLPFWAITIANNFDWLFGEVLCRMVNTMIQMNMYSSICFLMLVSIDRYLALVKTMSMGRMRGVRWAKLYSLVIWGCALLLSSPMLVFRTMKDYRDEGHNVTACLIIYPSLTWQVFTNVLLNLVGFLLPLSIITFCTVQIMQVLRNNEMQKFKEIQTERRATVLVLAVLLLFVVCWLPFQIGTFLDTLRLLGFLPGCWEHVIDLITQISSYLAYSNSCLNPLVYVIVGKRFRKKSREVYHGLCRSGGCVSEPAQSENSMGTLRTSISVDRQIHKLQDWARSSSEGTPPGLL
Experiment: 3H-Bradykinin receptor binding (crude ileum membrane)
Set-up: species or system guinea pig (male Hartly strain)
Settings: concentration: 1 × 10^-5 M; 0.06 nM 3H-Bradykinin; guinea pig ileum membrane; room temperature, 60 minutes
Method: ^3 H-Bradykinin receptor binding
(a) Crude ileum membrane preparation
Male Hartly strain guinea pigs were sacrificed by decapitation. The ileum was removed and homogenized in buffer (50 mM trimethylaminoethanesulfonic acid (TES), 1 mM 1,10-phenanthroline pH 6.8). The homogenate was centrifuged (1000 xg, 20 minutes) to remove tissue clumps and the supernatant was centrifuges (100,000 xg, 60 minutes) to yield a pellet. The pellet was resuspended in buffer (50 mM TES, 1 mM 1,10-phenanthroline,140 mg/l bacitracin, 1 mM dithiothreiol, 0.1% bovine serum albumin pH 6.8) and homogenized with a glass-teflon homogenizer to yield suspension which was referred to as crude membrane suspension. The obtained membrane suspension was stored at -80° C. until use.
(b) ^3 H-Bradykinin binding to the membrane
The frozen crude membrane suspension was thawed. In binding assays, ^3 H-Bradykinin (0.06 nM) and drug (1×10^-5 M) were incubated with 50 μl of the membrane suspension at room temperature for 60 minutes in a final volume of 250 μl. Separation of receptor-bound from free 3H-Bradykinin is achieved by immediate filtration under vacuum and washed three times with 5 ml of ice-cold buffer (50 mM Tris-HCl pH 7.5). Non-specific binding was defined as binding in the presence of 0.1 μM Bradykinin. The radioactivity retained on rinsed filters was determined by a liquid-scintillation counter.

Row | Inhibition % of ^3 H-Bradykinin binding | SMILES
1 | 94% | CNC(=O)c1ccc(/C=C/C(=O)NCC(=O)N(C)c2ccc(C)c(COc3cccc4c3nc(C(C)=O)n4C)c2C)cc1 [15-(9) hydrochloride]
2 | 98% | CNC(=O)c1ccc(/C=C/C(=O)NCC(=O)N(C)c2ccc(Cl)c(COc3cccc4c(C)c(C)oc34)c2Cl)cc1 [15-(20), 7-[2,6-Dichloro-3-[N-[4-(methylcarbamoyl)cinnamoylglycyl]-N-methylamino]benzyloxy]-2,3-dimethylbenzofuran]
3 | 99% | CNC(=O)c1ccc(/C=C/C(=O)NCC(=O)N(C)c2ccc(Cl)c(COc3cccc4c3nc(C)n4C)c2Cl)cc1 [Example 7, 4-[2,6-dichloro-3-[N-methyl-N-[4-(methyl-carbamoyl)cinnamoylglycy]amino]benzyloxy]-1,2-dimethyl-1H-benzimidazole]
